Data taken from paper PMC3322948, “Phase I first-in-human study of TAK-285, a novel investigational dual HER2/EGFR inhibitor, in cancer patients” (British Journal of Cancer, 2012).

Legend:
[1] = test system: HER2- or EGFR-overexpressing human tumour xenografts such as BT-474, 4-1 ST and A431; set-up: method as in Iwahara et al, 2008; conditions: orally administered; ref Iwahara et al, 2008; cited from earlier work
[2] = rodent and primate; non-clinical studies; cited from earlier work
[3] = set-up: method as in Shell et al, 2008; conditions: non-clinical; ref Shell et al, 2008; cited from earlier work
[4] = Urinary excretion after oral TAK-285; type: in vivo, human (Japanese patients); conditions: up to 12- or 24-h postdose following single or multiple dosing
Method: In the dose escalation cohort, plasma samples for PK analysis were collected at predose and up to 72 h after single dose administration and on day 21 after repeated administration of TAK-285. Urine samples were also collected up to 24-h postdose. In the repeated administration cohort, plasma samples for PK analysis were collected at predose and up to 12-h postdose on days 1 and 28. Urine samples were also collected up to 12-h postdose each day. Concentrations of TAK-285 and M-I in plasma and urine were determined using validated liquid chromatography tandem mass spectrometry (LC-MS/MS) methods. The plasma and urine samples were treated by liquid–liquid extraction and subjected to LC-MS/MS equipped with a reversed-phase column. The lower limit of quantification for both TAK-285 and M-I was 0.2 ng ml^–1 in plasma and 2 ng ml^–1 in urine when 50 μl of the plasma sample and 55 μl of the urine sample (containing 5 μl of Tween 80 solution) were analysed. Tween 80 solution was added to the urine sample to prevent the adsorption of analytes onto the sample containers. The accuracy of the plasma assay (percentage deviation from nominal) ranged from −10.8 to 11.0% for TAK-285, and from −14.0 to 13.8% for M-I. […] Pharmacokinetic parameters of TAK-285 and M-I were estimated for each patient using noncompartmental methods with Phoenix WinNonlin Version 6.1 (Pharsight, Mountain View, CA, USA).

solid tumours = assay: Antitumour activity by RECIST in patients; type: in vivo, human (Japanese patients)
Method: The primary study endpoints were to determine the MTD as well as PK profiles of TAK-285 and its metabolite, M-I (data on file, Takeda Pharmaceutical Company Limited). The secondary endpoints were objective response rate (complete response (CR) and partial response (PR)), disease control rate (CR, PR and stable disease (SD), for at least 12 weeks), and time to tumour progression, defined as the time from the first dose of TAK-285 until disease progression or death. Tumour response was assessed every 4 weeks by RECIST version 1.0 ([Therasse et al, 2000]).

Compound: CC(C)(O)CC(=O)NCCn1ccc2ncnc(Nc3ccc(Oc4cccc(C(F)(F)F)c4)c(Cl)c3)c21 [TAK-285]
- xenograft growth [1]: effectively inhibited xenograft growth
- tolerability in toxicity models [2]: well tolerated
- cardiac risks [3]: potentially no exhibition of elevated cardiac risks
- mean cumulative excretion ratio in urine [4]: below 0.02 % of the dose
- disease control rate (solid tumours; 1 of 26 patients): 3.8%
- objective response rate (solid tumours; 1 of 26 patients): 3.8%
- median time to tumour progression (solid tumours; 26 patients): 58 days
- patients showing reduction in tumour size (solid tumours; dose escalation cohort): one
- patients achieving partial response (PR), percent (solid tumours; of 26 patients): 3.8%
- patients achieving partial response (PR), number (solid tumours; parotid cancer, 300 mg b.i.d.): One
- duration of partial response (solid tumours; patient with parotid cancer): 56 days
- patients showing reduction in tumour size (solid tumours; repeated administration cohort, of six patients): three
